“Also recorded” adds a separate entry of the source. Residues, ends and D or L forms follow the SMILES beside them. Groups on a side chain read outwards from the residue. *: point of attachment. X1 = CC(=O)NC1C(O)[C@H](O)C(COS(=O)(=O)O)O[C@H]1OCCn1cc(CCC(=O)*)nn1; X2 = O=C(O)C1O[C@@H](OCCn2cc(CCC(=O)*)nn2)C(O)C(O)[C@@H]1O; Acetyl(2-(HOCH2CH2OCH2CH2O)) = O=C(COCCOCCO)*; AEEA = NCCOCCOCC(=O)O; Propionyl = CCC(=O)*
Assays:
[1] = Zeta potential measurements; format: physicochemical
Description: Zeta Potential Measurements: Zeta (ζ) potential was measured using a Malvern Zetasizer Nano ZS (n=3). PA samples were thermally annealed as described for Cryo-TEM. Following, PAs were diluted to 0.5 mM in DMEM. PA solutions were water-bath sonicated for 1 min prior to zeta potential measurement. Background reading from DMEM alone was subtracted from the final measurements.

[2] = system: BMP-2 signaling in C2C12 cells; assay: C2C12 osteoblast differentiation with BMP-2, alkaline phosphatase (ALP) activity; format: cell-based, mouse; details: for effect on BMP-2 activity / osteoblast differentiation (in words) / level of ALP expression relative to BMP-2 alone (factor): C2C12, BMP-2 75 ng/mL
Description: (§1) C2C12 Cell Culture: C2C12 mouse myoblasts (ATCC) were maintained in Dulbecco's Modified Eagle's Medium with high glucose and L-glutamine (DMEM, ATCC), supplemented with 100 U/mL of penicillin and 100 μg/mL streptomycin (P/S, Life Technologies) and 10% heat inactivated FBS (Life Technologies), and passaged at 80-90% confluence. Media was changed every 2 days. Passages 3 to 8 were used for experiments. Cells were grown at 37° C., 5% CO2 in a humidified atmosphere. Cells were detached following a 3 minute incubation at 37° C. with 0.05% Trypsin-EDTA (Life Technologies), then resuspended in DMEM (10% FBS). Unless stated otherwise, cells were seeded at 75,000 cells/mL (400 μL/well in a 48-well plate), and allowed to attach for a minimum of 3 hours prior to experiments.
C2C12 Osteoblast Differentiation: PA samples were thermally annealed as described for Cryo-TEM. PA solutions were spun down, pipetted for homogeneous mixing, then diluted to 1 mM with DMEM (no FBS). In a 1.5 mL microcentrifuge tube, PA solutions were further diluted with DMEM (5% FBS), gently vortexed, and appropriate amounts of GFs (20 μg/mL) were added to yield [PA]=125 μM and [GF]=375 ng/mL. For mixing, the microcentrifuge tube was gently inverted several times by hand. Following, cells were treated by adding a 100 μl, of the PA/GF mixture per well (48-well plate), yielding a final 500 μl, differentiation medium with [PA]=25 μM and [GF]=75 ng/mL. For controls, the initial 5 mM PA solution was substituted with either PBS alone (saline) or heparin in PBS at appropriate concentrations. Cells were cultured for 3 days without changing the media, and osteoblast differentiation was assessed.
Alkaline Phosphatase Activity: Alkaline phosphatase (ALP) activity was measured as a marker of osteoblast differentiation (ref. 38; incorporated by reference in its entirety). On day 3, media was removed, and cells were lysed with a 100 μL, of M-PER Mammalian Protein Extraction Reagent (Life Technologies), supplemented with 1×Halt Protease Inhibitor Cocktail (Thermo Fisher Scientific), for 30 minutes on an orbital shaker. A 20 μL, volume of the cell lysate was incubated with 200 μL, of the QUANTI-Blue colorimetric ALP assay (InvivoGen) for 30 minutes to 2 hours at 37° C., in duplicates. The ALP activity was assessed by reading the OD at 630 nm with Cytation3 microplate reader (BioTek). Data were normalized to the respective endogenous DNA levels using Quant-iT PicoGreen dsDNA Assay Kit (Life Technologies). Two separate experiments with 4 replicates each were averaged for statistical analysis. […]

[3] = system: BMP-2, BMP-4, noggin, Shh, VEGF, FGF-1, FGF-2; assay: Surface plasmon resonance (SPR) binding to immobilized heparin binding GFs; parameters: species or system human (Noggin murine); details: analytes 50-500 nM; GFs immobilized on alginate surface; 25° C.
Description: (§2) Surface Plasmon Resonance: The binding interactions between PAs (analytes) and growth factors (ligands) were analyzed via surface plasmon resonance (SPR) using a ProteON XPR36 system (Bio-Rad Laboratories). PA samples were thermally annealed as described for Cryo-TEM. PA solutions were spun down, pipetted for homogeneous mixing, and sequentially diluted to appropriate concentrations using Tween buffer (Milli-Q water, 0.05% Tween-20). Lyophilized powders of GFs were reconstituted to 5 μM without any carrier proteins according to the manufacturer's instructions. BMP-2, BMP-4, Shh, VEGF, and FGF-2 were further diluted to 200 nM in ProteOn Acetate Buffer pH 5.5, while FGF-1 was diluted to 200 nM in ProteOn Acetate Buffer pH 4.5. Noggin was diluted to 300 nM in ProteOn Acetate Buffer pH 5.5.
GFs were immobilized on a ProteOn GLC-Chip via amino coupling as described previously, with slight modifications (37). First, the alginate surface was activated with a freshly prepared mixture of 20 mM 1-Ethyl-3-[3-dimethylaminopropyl]carbodiimide hydrochloride (EDC) and 5 mM N-hydroxysulfosuccinimide (Sulfo-NHS) in Milli-Q water (vertical flow cells, 30 μL/min, 3 min). Following, GFs were immobilized on vertical flow cells 1 to 5 by perfusing a freshly prepared 200 nM (or 300 nM) solution over the activated alginate surface (30 μL/min, 5 min). Blank buffer was perfused on vertical cell 6 as a reference. The remaining esters were deactivated with 1 M ethanolamine (30 μL/min, 3 min). The association and dissociation phases were performed at 25° C. in Tween buffer. Prior to each analyte injection, the horizontal flow cells 1 to 6 were regenerated with 10 mM NaOH (100 μL/min, 30 sec) and washed once with Tween buffer (30 μL/min, 3 min). Varied analyte concentrations were injected to horizontal flow cells 1 to 5, with flow cell 6 as a reference (30 μL/min, 5 min), followed by dissociation with Tween buffer (30 μL/min, 10 min). For analysis, SPR sensorgram from the reference flow cell was subtracted from all measurement flow cells. Interaction data were evaluated using the BIAEvaluation 4.1 software. […]

[4] = target: T1, BMP-2 (Homo sapiens, UniProt P12643); assay: BMP-2 stability assay (ELISA) in C2C12 culture; format: cell-based; details: 75 ng/mL BMP-2; 0, 3, 9, 24 h
T1 construct: purchased Medtronic Sofamor Danek (Minneapolis, Minn.)
T1 sequence (P12643 283-396): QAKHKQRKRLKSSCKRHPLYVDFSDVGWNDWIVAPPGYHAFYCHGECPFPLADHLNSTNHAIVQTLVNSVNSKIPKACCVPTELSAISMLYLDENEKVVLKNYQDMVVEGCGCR
Description: BMP-2 Stability Assay: C2C12 cells were seeded at 150,000 cells/mL (500 μL/well in a 48-well plate) and incubated overnight. Following, the media was replaced with treatment media (75 ng/mL BMP-2 in the presence/absence of PA 1, PA 4, and monosaccharide 1. The media was collected at 0, 3, 9, and 24 h and stored at −80° C. prior to BMP-2 quantification. In addition, the cell monolayers were lysed at the indicated time with a 100 μL of M-PER Mammalian Protein Extraction Reagent, supplemented with 1×Halt Protease Inhibitor Cocktail, and also stored at −80° C. prior to BMP-2 quantification. The amount of BMP-2 present in the media and cell extracts was assayed using a BMP-2 Quantikine ELISA kit (R&D Systems) according to the manufacturer's specifications.

[5] = target: T2, BMP-4 (Homo sapiens, UniProt P12644); assay: SPR binding to BMP-4; details: azide-derivative, not assembled
T2 construct: from E. coli were purchased from PeproTech, in their mature forms; purchased PeproTech; host or cells: E. coli
T2 sequence (P12644 293-408): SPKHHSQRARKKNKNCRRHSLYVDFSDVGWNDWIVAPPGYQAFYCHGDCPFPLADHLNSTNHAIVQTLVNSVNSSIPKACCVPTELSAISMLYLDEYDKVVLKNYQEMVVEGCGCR
Description: as §2
(§3) GFs were immobilized on a ProteOn GLC-Chip via amino coupling as described previously, with slight modifications (37). First, the alginate surface was activated with a freshly prepared mixture of 20 mM 1-Ethyl-3-[3-dimethylaminopropyl]carbodiimide hydrochloride (EDC) and 5 mM N-hydroxysulfosuccinimide (Sulfo-NHS) in Milli-Q water (vertical flow cells, 30 μL/min, 3 min). […] Interaction data were evaluated using the BIAEvaluation 4.1 software. […]

[6] = system: BMP-4 signaling in C2C12 cells; assay: C2C12 osteoblast differentiation with BMP-4, ALP activity; format: cell-based, mouse
Description: as §1
C2C12 Osteoblast Differentiation: PA samples were thermally annealed as described for Cryo-TEM. PA solutions were spun down, pipetted for homogeneous mixing, then diluted to 1 mM with DMEM (no FBS). […] Cells were cultured for 3 days without changing the media, and osteoblast differentiation was assessed.
Alkaline Phosphatase Activity: Alkaline phosphatase (ALP) activity was measured as a marker of osteoblast differentiation (ref. 38; incorporated by reference in its entirety). […] The ALP activity was assessed by reading the OD at 630 nm with Cytation3 microplate reader (BioTek). […]

[7] = target: T1, BMP-2; assay: SPR binding to BMP-2; details: azide-derivative, not assembled
Description: as §2, §3

## CCC(=O)N[C@H](C(=O)N[C@H](C(=O)N[C@@H](C)C(=O)N[C@@H](C)C(=O)N[C@@H](CCC(=O)O)C(=O)N[C@@H](CCC(=O)O)C(=O)N[C@@H](CCCCNC(=O)COCCOCCNC(=O)CCc1cn(CCO[C@@H]2OC(COS(=O)(=O)O)[C@@H](O)C(O)C2NC(C)=O)nn1)C(N)=O)C(C)C)C(C)C (stereo partly drawn) [PA 2, 6S-GlcNAc PA] (Propionyl-VVAAEEK([AEEA-X1])-NH2)
[1]
  zeta potential / net charge of nanofibers: comparable zeta potentials
[2]; nanofibers containing the monosulfated monosaccharide, density not stated, 25 μM PA, BMP-2 75 ng/mL
  increase in BMP-2 signaling (ALP activity): 3 fold

## Heparan sulfate [reference compound]
[2]; 3 days
  effect on BMP-2 activity / osteoblast differentiation (in words): dose response increase
  level of ALP expression relative to BMP-2 alone (factor): 3

## CCC(=O)N[C@H](C(=O)N[C@H](C(=O)N[C@@H](C)C(=O)N[C@@H](C)C(=O)N[C@@H](CCC(=O)O)C(=O)N[C@@H](CCC(=O)O)C(=O)N[C@@H](CCCCNC(=O)COCCOCCNC(=O)CCc1cn(CCO[C@@H]2OC(C(=O)O)[C@@H](O)C(O)C2O)nn1)C(N)=O)C(C)C)C(C)C (stereo partly shown) [PA 3, GlcA PA] (Propionyl-VVAAEEK([AEEA-X2])-NH2)
[1]
  zeta potential / net charge of nanofibers: comparable zeta potentials
[2]; 3 days
  effect on BMP-2 activity / osteoblast differentiation (in words): did not potentiate
[2]; incorporated at the level of 10% or higher in PA 6, 25 μM PA, BMP-2 75 ng/mL
  ALP activity, PA co-assembled with PA 6: not to enhanced

## CCC(=O)N[C@H](C(=O)N[C@H](C(=O)N[C@@H](C)C(=O)N[C@@H](C)C(=O)N[C@@H](CCC(=O)O)C(=O)N[C@@H](CCC(=O)O)C(N)=O)C(C)C)C(C)C [PA 6, E2 PA] (Propionyl-VVAAEE-NH2)
[2]; PA 6 alone, 0% monosaccharide density, 25 μM PA, BMP-2 75 ng/mL, 3 days
  increase in ALP activity: 5 fold

## CCC(=O)N[C@H](C(=O)N[C@H](C(=O)N[C@@H](C)C(=O)N[C@@H](C)C(=O)N[C@@H](CCC(=O)O)C(=O)N[C@@H](CCC(=O)O)C(=O)N[C@@H](CCCCNC(=O)COCCOCCO)C(N)=O)C(C)C)C(C)C [PA 5, OEG PA] (Propionyl-VVAAEEK(Acetyl(2-(HOCH2CH2OCH2CH2O)))-NH2)
[1]
  zeta potential / net charge of nanofibers: screened the net negative charge
[2]; 3 days
  effect on BMP-2 activity / osteoblast differentiation (in words): negligible effect

## heparin [reference compound]
[2]; 3 days
  effect on BMP-2 activity / osteoblast differentiation (in words): dose response increase; also recorded: more potent response than HS
  level of ALP expression relative to BMP-2 alone (factor): 5
[3]
  binding to heparin binding GFs (SPR): moderate binding

## 2-Azidoethyl 2-acetamido-3,4,6-tri-O-sulfo-2-deoxy-β-D-glycopyranoside [monosaccharide 1]
[4]
  BMP-2 stability in cell culture media: not
[2]; 3 days
  effect on BMP-2 activity / osteoblast differentiation (in words): not to be the case
[5]
  binding to BMP-4 (SPR): bound neither
[6]
  amplification of BMP-4 signaling: not to be the case
[3]
  binding to heparin binding GFs (SPR): essentially does not bind
[7]
  binding to BMP-2 (SPR): bound neither

From patent publication US11497788B2, “Supramolecular glycosaminoglycans” (Northwestern University, priority 2015, dated 2022)
